pKd: −log10 of the molar value.
Molecular target: T1, STAT3 (signal transducer and activator of transcription 3) (Homo sapiens, UniProt P40763)
T1 construct: Recombinant human STAT3 protein
Test: SPR, STAT3 immobilized on C5 sensor chip, PSD-A […]
Type: binding

T1 sequence (P40763 2-770): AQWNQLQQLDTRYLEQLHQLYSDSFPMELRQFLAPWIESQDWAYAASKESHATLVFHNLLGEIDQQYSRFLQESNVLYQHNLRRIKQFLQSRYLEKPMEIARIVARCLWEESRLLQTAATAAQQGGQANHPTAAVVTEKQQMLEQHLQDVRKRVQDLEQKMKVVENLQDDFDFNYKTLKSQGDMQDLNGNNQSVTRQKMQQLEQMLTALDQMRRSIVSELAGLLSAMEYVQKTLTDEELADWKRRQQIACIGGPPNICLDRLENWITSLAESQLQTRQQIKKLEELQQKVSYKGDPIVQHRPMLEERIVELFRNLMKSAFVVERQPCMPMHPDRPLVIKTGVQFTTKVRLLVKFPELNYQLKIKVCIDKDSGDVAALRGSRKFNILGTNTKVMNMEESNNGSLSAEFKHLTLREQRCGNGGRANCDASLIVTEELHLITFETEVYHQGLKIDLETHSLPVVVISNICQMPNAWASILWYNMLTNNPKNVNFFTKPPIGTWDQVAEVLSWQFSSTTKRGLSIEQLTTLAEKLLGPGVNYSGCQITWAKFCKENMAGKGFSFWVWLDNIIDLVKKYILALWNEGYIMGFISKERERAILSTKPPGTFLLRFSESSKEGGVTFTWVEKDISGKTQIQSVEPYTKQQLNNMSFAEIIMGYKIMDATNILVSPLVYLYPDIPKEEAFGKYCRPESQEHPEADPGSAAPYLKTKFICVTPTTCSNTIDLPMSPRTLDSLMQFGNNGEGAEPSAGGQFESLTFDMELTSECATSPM

C[C@@H]1O[C@@H](O[C@@H]2C=C3CC[C@@H]4[C@H](CC[C@]5(C)[C@@H](c6ccc(=O)oc6)CC[C@]45O)[C@@]3(C)CC2)[C@H](O)[C@H](O)[C@H]1O [PSD-A, Proscillaridin A]
pKd: ~6.80
